Consider 14 compounds from EP0307172A2, “Improvements in or relating to specific 5-HT3 antagonists” (ELI LILLY AND COMPANY, priority 1987, dated 1989).

For one test, the target named is T1, 5-HT₃ receptor (Rattus norvegicus, UniProt P35563).
T1 construct: from tissue
T1 sequence (P35563 24-483): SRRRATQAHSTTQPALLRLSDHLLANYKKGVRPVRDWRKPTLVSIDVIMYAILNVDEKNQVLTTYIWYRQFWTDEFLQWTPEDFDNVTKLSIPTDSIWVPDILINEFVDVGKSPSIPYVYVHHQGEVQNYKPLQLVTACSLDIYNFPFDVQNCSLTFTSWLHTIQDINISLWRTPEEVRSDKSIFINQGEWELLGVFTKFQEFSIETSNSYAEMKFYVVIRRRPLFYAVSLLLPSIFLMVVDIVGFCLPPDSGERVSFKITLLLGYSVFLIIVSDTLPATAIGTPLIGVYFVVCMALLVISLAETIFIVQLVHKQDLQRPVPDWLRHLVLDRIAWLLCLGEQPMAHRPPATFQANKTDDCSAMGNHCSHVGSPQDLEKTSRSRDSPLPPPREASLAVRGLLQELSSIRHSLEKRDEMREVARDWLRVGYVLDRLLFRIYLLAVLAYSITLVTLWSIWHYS
In words: Inhibition of serotonin-induced Von Bezold-Jarisch reflex in rats. It is filed as in vivo. The following applies: rat, iv, 15 minutes prior to 5-HT, read-out: Percent Inhibition of Reflex in Rats; for inhibition at 0.001 mg/kg: 0.001 mg/kg I.V.; for inhibition at 0.003 mg/kg: 0.003 mg/kg I.V.; for inhibition at 0.01 mg/kg: 0.01 mg/kg I.V.; for inhibition at 0.03 mg/kg: 0.03 mg/kg I.V. The source says:
The compounds of Formula I of this invention are long-acting, orally effective specific 5-HT₃ receptor antagonists, rendering them useful for the treatment of migraine. Because of this mechanism, the compounds of this invention should also be useful for treating emesis, motion sickness, ischemic bowel disease, diabetic gastric paresis, relaxation of the gastro-intestinal tract for instrumentation, other gastro-intestinal pain following surgery, obstetrics or as in abdominal cramps, and for treating CNS disorders such as schizophrenia and anxiety. The ability of these compounds to antagonize the effects of 5-HT was assessed by their inhibition of the Von Bezold-Jarisch reflex induced by 5-HT injected intravenously into the rat (See Paintal, Physiol. Rev., 53, 159 (1973)). When administered by the intravenous route 15 minutes prior to the administration of 5-HT, the compounds of this invention were effective in inhibiting the serotonin-induced Bezold-Jarisch reflex as summarized in Table 1 below: Table 1

For another test, the system named is cisplatin-induced emesis. In words: Blockade of cisplatin-induced emesis in dogs. It is filed as in vivo. The following applies: Canis lupus familiaris, iv, read-out: ED₅₀. The source says: These compounds may also be used as antiemetic agents. […] Since 5HT₃ receptors are prevalent in the GI tract, other potential uses include other diseases of the gastro- intestinal tract, such as ischemic bowel, esophageal reflux, etc.

As to `CN1[C@@H]2CC[C@H]1C[C@@H](NC(=O)c1cc(Cl)cc3c1OC(C)(C)C3)C2` [Example 19, Endo-5-chloro-2,3-dihydro-2,2-dimethyl-N-(8-methyl-8-azabicyclo[3.2.1.]oct-3-yl)-7-benzofurancarboxamide (Z)-2-butenedioate], at 5-HT₃ receptor, the inhibition at 0.001 mg/kg worked out at 66% and the inhibition at 0.003 mg/kg is 90%. Also, the ED50 in the test on cisplatin-induced emesis turned out to be 0.0356 mg/kg.

In the case of `CC1Cc2cccc(C(=O)N[C@H]3C[C@H]4CC[C@@H](C3)N4C)c2O1` (mixture of isomers) [Example 33, dl-endo-2,3-dihydro-2-methyl-N-(8-methyl-8-azabicyclo[3.2.1]oct-3-yl)-7-benzofurancarboxamide (Z)-2-butenedioate], on 5-HT₃ receptor, the inhibition at 0.01 mg/kg turned out to be 22% and the inhibition at 0.03 mg/kg turned out to be 57%.

For the compound `CN1[C@@H]2CC[C@H]1C[C@H](OC(=O)c1cc(Cl)cc3c1OC(C)(C)C3)C2` [Example 26, Exo-2,2-dimethyl-5-chloro-2,3-dihydro-7-benzofurancarboxylic acid, 8-methyl-8-azabicyclo[3.2.1]oct-3-yl ester (Z)-2-butenedioate], on 5-HT₃ receptor, the inhibition at 0.01 mg/kg was found to be 2%.

With `CC1Cc2cc(Cl)cc(C(=O)O[C@H]3C[C@H]4CC[C@@H](C3)N4C)c2O1` (mixture of isomers) [Example 34, dl-endo-5-chloro-2,3-dihydro-2-methyl-7-benzofurancarboxylic acid, 8-methyl-8-azabicyclo[3.2.1]oct-3-yl ester (Z)-2-butenedioate], on 5-HT₃ receptor, the inhibition at 0.001 mg/kg is 6%, the inhibition at 0.003 mg/kg amounted to 51% and the inhibition at 0.01 mg/kg was determined as 69%.

Turning to `CN1[C@@H]2CC[C@H]1C[C@@H](NC(=O)c1cccc3c1OC(C)(C)C3)C2` [Example 17, Endo-2,3-dihydro-2,2-dimethyl-N-(8-methyl-8-azabicyclo[3.2.1]oct-3-yl)-7-benzofurancarboxamide (Z)-2-butenedioate], at 5-HT₃ receptor, the inhibition at 0.003 mg/kg was -2%, the inhibition at 0.01 mg/kg was determined as 53% and the inhibition at 0.03 mg/kg came to 82%.

In the case of `COc1cc2c(c(C(=O)N[C@H]3C[C@H]4CC[C@@H](C3)N4C)c1)OC(C)(C)C2` [Example 41, Endo-2,3-dihydro-2,2-dimethyl-5-methoxy-N-(8-methyl-8-azabicyclo[3.2.1]oct-3-yl)-7-benzofurancarboxamide (Z)-2-butenedioate], the inhibition at 0.01 mg/kg on 5-HT₃ receptor is -1%.

As to `CN1[C@@H]2CC[C@H]1C[C@@H](NC(=O)c1c(Cl)ccc3c1OC(C)(C)C3)C2` [Example 50, Endo-2,2-dimethyl-2,3-dihydro-6-chloro-N-(8-methyl-8-azabicyclo[3.2.1]oct-3-yl)-7-benzofurancarboxamide (Z)-2-butenedioate], on 5-HT₃ receptor, the inhibition at 0.01 mg/kg is -3%.

In the case of `CN1[C@@H]2CC[C@H]1C[C@@H](NC(=O)c1cccc3c1CC(C)(C)O3)C2` [Example 22, Endo-2,3-dihydro-2,2-dimethyl-N-(8-methyl-8-azabicyclo[3.2.1]oct-3-yl)-4-benzofurancarboxamide (Z)-2-butenedioate], the inhibition at 0.01 mg/kg on 5-HT₃ receptor is -4%.

Consider `Cc1cc2c(c(C(=O)O[C@H]3C[C@H]4CC[C@@H](C3)N4C)c1)OC(C)C2` (mixture of isomers) [Example 40, dl-endo-2,3-dihydro-2,5-dimethyl-7-benzofurancarboxylic acid, 8-methyl-8-azabicyclo[3.2.1]oct-3-yl ester (Z)-2-butenedioate], for which, at 5-HT₃ receptor, the inhibition at 0.001 mg/kg is 3%, the inhibition at 0.003 mg/kg was 14% and the inhibition at 0.01 mg/kg turned out to be 67%.

In the case of `CN1C2CCC1CC(NC(=O)c1cc(F)cc3c1OC(C)(C)C3)C2` (stereo not drawn) [Example 58, 5-Fluoro-2,3-dihydro-2,2-dimethyl-N-(8-methyl-8-azabicyclo[3.2.1]oct-3-yl)-7-benzofurancarboxamide (Z)-2-butenedioate], the inhibition at 0.01 mg/kg at 5-HT₃ receptor was found to be 71%.

As to `CN1[C@@H]2CC[C@H]1C[C@@H](NC(=O)c1cc(Cl)cc3c1OC(C)(C)CC3)C2` [Example 61, Endo-2,2-dimethyl-6-chloro-N-(8-methyl-8-azabicyclo[3.2.1]oct-3-yl)-8-chromancarboxamide (Z)-2-butenedioate], at 5-HT₃ receptor, the inhibition at 0.003 mg/kg turned out to be 30% and the inhibition at 0.01 mg/kg came out at 91%.

In the case of `CN1[C@@H]2CC[C@H]1C[C@@H](NC(=O)c1ccc(Cl)c3c1OC(C)(C)C3)C2` [Example 18, Endo-4-chloro-2,3-dihydro-2,2-dimethyl-N-(8-methyl-8-azabicyclo[3.2.1]oct-3-yl)-7-benzofurancarboxamide (Z)-2-butenedioate], the inhibition at 0.01 mg/kg on 5-HT₃ receptor was determined as 1.2%.

Consider `COc1c(Cl)cc(C(=O)N[C@H]2C[C@H]3CC[C@@H](C2)N3C)c2c1CC(C)(C)O2` [Example 57, Endo-5-chloro-2,3-dihydro-4-methoxy-2,2-dimethyl-N-(8-methyl-8-azabicyclo[3.2.1]oct-3-yl)-7-benzofurancarboxamide (Z)-2-butenedioate], for which the inhibition at 0.01 mg/kg at 5-HT₃ receptor was found to be 3%.

Regarding `COc1cc2c(c(C(=O)O[C@H]3C[C@H]4CC[C@@H](C3)N4C)c1)OC(C)C2` (mixture of isomers) [Example 28, dl-endo-2-methyl-5-methoxy-2,3-dihydro-7-benzofurancarboxylic acid, 8-methyl-8-azabicyclo[3.2.1]-oct-3-yl ester (Z)-2-butenedioate], the inhibition at 0.01 mg/kg on 5-HT₃ receptor amounted to 4%.
